Read-outs that look alike come from different tables or passages of the source.
Legend:
[1] = biological target: T1, recombinant human ERK5 catalytic domain (Homo sapiens, UniProt Q13164); assay: Recombinant human ERK5 radiometric (HotSpot) assay; type: biochemical
T1 construct: Recombinant human ERK5 catalytic domain radiometric assays; purchased Reaction Biology, Corp (Malvern, Pa.), which ran the assay as a service
Procedure: In this example, potency of the compounds in recombinant human ERK5 was assayed.
Recombinant human ERK5 catalytic domain radiometric assays were performed by Reaction Biology, Corp (Malvern, Pa.). The HotSpot radiometric assay is based on conventional filter-binding assays (Nature Biotechnology (2011) 29: 1039-1045). Compounds were tested at 20 μM down by ⅓ in a 10 point serial dilution series. Briefly, [γ-33P]-ATP was used as the tracer along with 10 μM cold ATP to label ERK5 in the presence of 20 μM myelin basic protein substrate.

human PBMCs = assay: Human PBMC TNF-α response to endotoxin (ELISA); type: cell-based; conditions: 0.1 μg/ml LPS 16 h, read-out: EC50 for the inhibition of the human PBMC TNF-α response to endotoxin, ave. ± S.D.
Outline: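 PBMCs at 2e6 cells/ml in RPMI 1640 with 10% charcoal-dextran-treated FBS were pre-treated 1 h at 37 °C with compound (4-point 1:5 dilution from 10 μM). Stimulation with 0.1 μg/ml E. coli 0111:B4 LPS for 16 h; TNF-α measured by ELISA (A450) in 25-fold diluted supernatant.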

[2] = biological target: T2, BRD4 bromodomain domain I [BRD4(1)] (Homo sapiens, UniProt O60885); assay: BRD4 bromodomain domain 1 inhibition assay (TR-FRET); type: binding; conditions: screening concentration 10 μM
T2 construct: BRD4 bromodomain domain I [BRD4(1)]; purchased Cayman Chemicals
Outline: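 0.5% DMSO, in triplicate, using Cayman BRD4(1) TR-FRET protocol with slight modification. 670/620 nm ratio normalized to 10 μM JQ1, with DMSO control set as 0% inhibition.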

[3] = 10 μM ATP, 20 μM myelin basic protein substrate, read-out: rhERK5 IC50

T1 sequence (Q13164 55-347 limits assumed): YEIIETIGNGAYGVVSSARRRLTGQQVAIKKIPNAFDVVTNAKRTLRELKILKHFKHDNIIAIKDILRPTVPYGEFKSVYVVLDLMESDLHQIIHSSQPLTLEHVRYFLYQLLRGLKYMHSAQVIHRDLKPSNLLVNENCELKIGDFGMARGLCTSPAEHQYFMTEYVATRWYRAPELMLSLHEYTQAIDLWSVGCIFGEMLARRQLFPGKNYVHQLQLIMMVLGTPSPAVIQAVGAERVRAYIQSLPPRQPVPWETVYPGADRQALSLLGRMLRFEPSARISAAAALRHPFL

SMILES | IC50 [1, 3] | EC50 (human PBMCs) | inhibition at 10 µM [2] | IC50 [1]
CCOc1cc(C(=O)N2CCC(N3CCOCC3)CC2)ccc1Nc1cc2c(cn1)N(C)C(=O)c1ccccc1N2C [Compound T12] | 20 to 50 nM | 680 nM | – | –
CCOc1cc(C(=O)N2CCC[C@H](O)C2)ccc1Nc1cc2c(cn1)N(C)C(=O)c1scnc1N2C [Compound T13] | 50 to 200 nM | 950 nM | – | –
CCOc1cc(C(=O)N2CCN(CCOC)CC2)ccc1Nc1cc2c(cn1)N(C)C(=O)c1ccccc1N2C [Compound T16] | 20 to 50 nM | 920 nM | – | –
CCOc1cc(C(=O)N2CCN(CCC#N)CC2)ccc1Nc1cc2c(cn1)N(C)C(=O)c1ccccc1N2C [Compound T17] | 20 to 50 nM | 900 nM | – | –
CCOc1cc(C(=O)N2CC[C@@H](N3CCOCC3)C2)ccc1Nc1cc2c(cn1)N(C)C(=O)c1ccccc1N2C [Compound T19] | 50 to 200 nM | 690 nM | – | –
CCOc1cc(C(=O)N2CC[C@@H](C#N)C2)ccc1Nc1cc2c(cn1)N(C)C(=O)c1ccccc1N2C [Compound T21] | < 20 nM | 1280 nM | – | –
CCOc1cc(C(=O)N2CCC[C@@H](C#N)C2)ccc1Nc1cc2c(cn1)N(C)C(=O)c1ccccc1N2C [Compound T23] | > 200 nM | 2390 nM | – | –
CCOc1cc(C(=O)N2CCC[C@H](C#N)C2)ccc1Nc1cc2c(cn1)N(C)C(=O)c1ccccc1N2C [Compound T24] | > 200 nM | 3270 nM | – | –
CCOc1cc(C(=O)N2CCN[C@@H](C)C2)ccc1Nc1cc2c(cn1)N(C)C(=O)c1ccccc1N2C [Compound T25] | < 20 nM | 480 nM | > 85% | –
CCOc1cc(C(C)N2CCCC2)ccc1Nc1cc2c(cn1)N(C)C(=O)c1ccccc1N2C (stereo not shown) [Compound T26] | < 20 nM | 410 nM | > 85% | –
CCOc1cc(C(C)N2CC[C@@H](O)C2)ccc1Nc1cc2c(cn1)N(C)C(=O)c1ccccc1N2C (stereo partly shown) [Compound T27] | < 20 nM | 370 nM | > 85% | –
CCOc1cc(C(=O)N2CCC(=O)CC2)ccc1Nc1cc2c(cn1)N(C)C(=O)c1ccccc1N2C [Compound T28] | – | 480 nM | – | < 20 nM
CCOc1cc(C(=O)N2CCN[C@H](C)C2)ccc1Nc1cc2c(cn1)N(C)C(=O)c1ccccc1N2C [Compound T29] | < 20 nM | 350 nM | > 85% | –
CCOc1cc(C(=O)N2CCN(C(=O)CN)CC2)ccc1Nc1cc2c(cn1)N(C)C(=O)c1ccccc1N2C [Compound T30] | < 20 nM | 770 nM | – | –
CN1C(=O)c2ccccc2N(C)c2cc(Nc3ccc(C(=O)N4CCC[C@H](O)C4)cc3OCCF)ncc21 [Compound T32] | 50 to 200 nM | 870 nM | – | –
CN1C(=O)c2ccccc2N(C)c2cc(Nc3ccc(C(=O)N4CCCNCC4)cc3OCCF)ncc21 [Compound T33] | < 20 nM | 670 nM | – | –
CCOc1cc(C(=O)N2CCN(c3ccccn3)CC2)ccc1Nc1cc2c(cn1)N(C)C(=O)c1ccccc1N2C [Compound T35] | 20 to 50 nM | 660 nM | – | –
CCOc1cc(C(=O)N2CCN(c3cccnc3)CC2)ccc1Nc1cc2c(cn1)N(C)C(=O)c1ccccc1N2C [Compound T36] | < 20 nM | 110 nM | – | –
CCOc1cc(C(=O)N2CCC(N(C)CCO)CC2)ccc1Nc1cc2c(cn1)N(C)C(=O)c1ccccc1N2C [Compound T38] | 20 to 50 nM | 320 nM | – | –
CCCOc1cc(C(=O)N2CCC[C@H](O)C2)ccc1Nc1cc2c(cn1)N(C)C(=O)c1ccccc1N2C [Compound T39] | > 200 nM | 920 nM | – | –
CCCOc1cc(C(=O)N2CCCNCC2)ccc1Nc1cc2c(cn1)N(C)C(=O)c1ccccc1N2C [Compound T40] | 20 to 50 nM | 490 nM | – | –
CCCOc1cc(C(=O)N2CCC(N3CCN(C)CC3)CC2)ccc1Nc1cc2c(cn1)N(C)C(=O)c1ccccc1N2C [Compound T41] | 20 to 50 nM | 370 nM | – | –
CCOc1cc(C(=O)N2CCC[C@H](OP(=O)(O)O)C2)ccc1Nc1cc2c(cn1)N(C)C(=O)c1ccccc1N2C [Compound T43] | 20 to 50 nM | > 10000 nM | – | –
CCOc1cc(C(=O)N2CCC[C@H](OC(=O)CN(C)C)C2)ccc1Nc1cc2c(cn1)N(C)C(=O)c1ccccc1N2C [Compound T44] | 20 to 50 nM | 650 nM | – | –

— patent US20170008888A1 (KYORIN PHARMACEUTICAL CO., LTD., priority 2014, published 2017)
